# From PubChem BioAssay AID1963860 (Molecular Pharmacology Branch, DTP, NCI, 2024)
# Tested on: CN0375-F725-PDC KRAS spheroid viability
# Assay: Anticancer human tumor CN0375-F725-PDC patient-derived colon carcinoma cell line growth inhibition [KRAS2]
# Conditions: spheroids with HUVEC and MSC; for IC50: curve of first compound; for viability, T/C: stronger effect = lower value
# Procedure, shortened: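 KRAS-mutant tumor cells were grown as spheroids with HUVEC endothelial cells and human MSCs as stroma. Targeted agents were tested alone and with KRAS pathway inhibitors. Doses started at or near clinical Cmax, or 10 microM, descending half-log.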
# [1] = second compound 0.0316 µM, first compound 0.0316 µM
# [2] = second compound 0.0316 µM, first compound 0.1 µM
# [3] = second compound 0.0316 µM, first compound 0.316 µM
# [4] = second compound 0.0316 µM, first compound 1 µM
# [5] = second compound 0.0316 µM, first compound 3.16 µM
# [6] = second compound 0.0316 µM, first compound 10 µM
# [7] = second compound 0.1 µM, first compound 0.0316 µM
# [8] = second compound 0.1 µM, first compound 0.1 µM
# [9] = second compound 0.1 µM, first compound 0.316 µM
# [10] = second compound 0.1 µM, first compound 1 µM
# [11] = second compound 0.1 µM, first compound 3.16 µM
# [12] = second compound 0.1 µM, first compound 10 µM
# [13] = second compound 0.316 µM, first compound 0.0316 µM
# [14] = second compound 0.316 µM, first compound 0.1 µM
# [15] = second compound 0.316 µM, first compound 0.316 µM
# [16] = second compound 0.316 µM, first compound 1 µM
# [17] = second compound 0.316 µM, first compound 3.16 µM
# [18] = second compound 0.316 µM, first compound 10 µM
# [19] = second compound 1 µM, first compound 0.0316 µM
# [20] = second compound 1 µM, first compound 0.1 µM
# [21] = second compound 1 µM, first compound 0.316 µM
# [22] = second compound 1 µM, first compound 1 µM
# [23] = second compound 1 µM, first compound 3.16 µM
# [24] = second compound 1 µM, first compound 10 µM
# [25] = second compound 3.16 µM, first compound 0.0316 µM
# [26] = second compound 3.16 µM, first compound 0.1 µM
# [27] = second compound 3.16 µM, first compound 0.316 µM
# [28] = second compound 3.16 µM, first compound 1 µM
# [29] = second compound 3.16 µM, first compound 3.16 µM
# [30] = second compound 3.16 µM, first compound 10 µM
# [31] = second compound 0.0316 µM, first compound 0.000316 µM
# [32] = second compound 0.0316 µM, first compound 0.001 µM
# [33] = second compound 0.0316 µM, first compound 0.00316 µM
# [34] = second compound 0.0316 µM, first compound 0.01 µM
# [35] = second compound 0.1 µM, first compound 0.000316 µM
# [36] = second compound 0.1 µM, first compound 0.001 µM
# [37] = second compound 0.1 µM, first compound 0.00316 µM
# [38] = second compound 0.1 µM, first compound 0.01 µM
# [39] = second compound 0.316 µM, first compound 0.000316 µM
# [40] = second compound 0.316 µM, first compound 0.001 µM
# [41] = second compound 0.316 µM, first compound 0.00316 µM
# [42] = second compound 0.316 µM, first compound 0.01 µM
# [43] = second compound 1 µM, first compound 0.000316 µM
# [44] = second compound 1 µM, first compound 0.001 µM
# [45] = second compound 1 µM, first compound 0.00316 µM
# [46] = second compound 1 µM, first compound 0.01 µM
# [47] = second compound 3.16 µM, first compound 0.000316 µM
# [48] = second compound 3.16 µM, first compound 0.001 µM
# [49] = second compound 3.16 µM, first compound 0.00316 µM
# [50] = second compound 3.16 µM, first compound 0.01 µM
# 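Also: spheroids exposed to agents for 7 days.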
SMILES,IC50 (second compound 0.0316 µM) [nM],IC50 (second compound 0.1 µM) [nM],IC50 (second compound 0.316 µM) [nM],IC50 (second compound 1 µM) [nM],IC50 (second compound 3.16 µM) [nM],"viability, T/C [1] [%]","viability, T/C [2] [%]","viability, T/C [3] [%]","viability, T/C [4] [%]","viability, T/C [5] [%]","viability, T/C [6] [%]","viability, T/C [7] [%]","viability, T/C [8] [%]","viability, T/C [9] [%]","viability, T/C [13] [%]","viability, T/C [14] [%]","viability, T/C [19] [%]","viability, T/C [20] [%]","viability, T/C [25] [%]","viability, T/C [26] [%]",other results
CC(C)NCC(C(=O)N1CCN(c2ncnc3c2C(C)CC3O)CC1)c1ccc(Cl)cc1 (stereo not given) + C=CC(=O)N1CCN(c2nc(OCC3CCCN3C)nc3c2CCN(c2cccc4cccc(C)c24)C3)CC1CC#N,> 10000,> 10000,> 10000,> 10000,< 31.6,106,105,101,93,94.2,83.2,106,103,98,101,108,103,102,19.5,14.7,"viability, T/C [10]: 91.7%; viability, T/C [11]: 91.4%; viability, T/C [12]: 78.2%; viability, T/C [15]: 94.6%; viability, T/C [16]: 87.8%; viability, T/C [17]: 85.3%; viability, T/C [18]: 71.4%; viability, T/C [21]: 92.5%; viability, T/C [22]: 76.8%; viability, T/C [23]: 70.9%; viability, T/C [24]: 58.2%; viability, T/C [27]: 13.5%; viability, T/C [28]: 4.72%; viability, T/C [29]: 3.97%; viability, T/C [30]: 1.46%"
CC(C)n1nc(-c2ccc3oc(N)nc3c2)c2c(N)ncnc21 + C=CC(=O)N1CCN(c2nc(OCC3CCCN3C)nc3c2CCN(c2cccc4cccc(C)c24)C3)CC1CC#N,54.2,39.2,56.6,42.7,< 0.316,57.5,42.4,–,–,–,–,51.9,43.9,–,56.6,45,53.2,46.1,11.5,8.34,"viability, T/C [31]: 106%; viability, T/C [32]: 96.5%; viability, T/C [33]: 76.8%; viability, T/C [34]: 70.1%; viability, T/C [35]: 103%; viability, T/C [36]: 95.2%; viability, T/C [37]: 78.8%; viability, T/C [38]: 63.8%; viability, T/C [39]: 103%; viability, T/C [40]: 98%; viability, T/C [41]: 78.3%; viability, T/C [42]: 63.7%; viability, T/C [43]: 87.4%; viability, T/C [44]: 91.2%; viability, T/C [45]: 75.1%; viability, T/C [46]: 60%; viability, T/C [47]: 37.8%; viability, T/C [48]: 11.5%; viability, T/C [49]: 31.4%; viability, T/C [50]: 1.09%"
CC1(C)CCC(CN2CCN(c3ccc(C(=O)NS(=O)(=O)c4ccc(NCC5CCOCC5)c([N+](=O)[O-])c4)c(Oc4cnc5[nH]ccc5c4)c3)CC2)=C(c2ccc(Cl)cc2)C1 + C=CC(=O)N1CCN(c2nc(OCC3CCCN3C)nc3c2CCN(c2cccc4cccc(C)c24)C3)CC1CC#N,3980,4630,2670,2010,< 31.6,108,102,101,107,58.5,15.9,104,104,102,101,108,96.6,97.2,11,12,"viability, T/C [10]: 99%; viability, T/C [11]: 66.3%; viability, T/C [12]: 17%; viability, T/C [15]: 101%; viability, T/C [16]: 96.6%; viability, T/C [17]: 42%; viability, T/C [18]: 14.3%; viability, T/C [21]: 100%; viability, T/C [22]: 86.3%; viability, T/C [23]: 26.2%; viability, T/C [24]: 5.23%; viability, T/C [27]: 3.38%; viability, T/C [28]: 3.27%; viability, T/C [29]: 0.38%; viability, T/C [30]: 0.17%"
COc1cc2nccc(Oc3ccc(NC(=O)C4(C(=O)Nc5ccc(F)cc5)CC4)cc3)c2cc1OC + C=CC(=O)N1CCN(c2nc(OCC3CCCN3C)nc3c2CCN(c2cccc4cccc(C)c24)C3)CC1CC#N,> 10000,> 10000,> 10000,1910,< 31.6,106,100,91.3,85.9,61.1,69.8,101,101,92.6,96.6,100,95.5,92,14.4,18.7,"viability, T/C [10]: 83.2%; viability, T/C [11]: 53.8%; viability, T/C [12]: 68.9%; viability, T/C [15]: 85.9%; viability, T/C [16]: 80.7%; viability, T/C [17]: 56.9%; viability, T/C [18]: 52.8%; viability, T/C [21]: 90.7%; viability, T/C [22]: 75.7%; viability, T/C [23]: 29.9%; viability, T/C [24]: 9.59%; viability, T/C [27]: 3.2%; viability, T/C [28]: 0.26%; viability, T/C [29]: 0.13%; viability, T/C [30]: 0.17%"
Cn1ncnc1[C@H]1c2n[nH]c(=O)c3cc(F)cc(c23)N[C@@H]1c1ccc(F)cc1 + C=CC(=O)N1CCN(c2nc(OCC3CCCN3C)nc3c2CCN(c2cccc4cccc(C)c24)C3)CC1CC#N,> 100,> 100,> 100,> 100,< 0.316,97.6,99.6,–,–,–,–,100,91.8,–,101,87,90.9,86.2,14.4,14.3,"viability, T/C [31]: 99.6%; viability, T/C [32]: 105%; viability, T/C [33]: 99.2%; viability, T/C [34]: 103%; viability, T/C [35]: 106%; viability, T/C [36]: 105%; viability, T/C [37]: 96.9%; viability, T/C [38]: 94.3%; viability, T/C [39]: 95.9%; viability, T/C [40]: 107%; viability, T/C [41]: 100%; viability, T/C [42]: 95.9%; viability, T/C [43]: 97.6%; viability, T/C [44]: 99%; viability, T/C [45]: 93.7%; viability, T/C [46]: 87.7%; viability, T/C [47]: 14.6%; viability, T/C [48]: 13.1%; viability, T/C [49]: 20.2%; viability, T/C [50]: 16.1%"
